{"source": "paper PMC10066365", "about": "“Nemacol is a small molecule inhibitor of C. elegans vesicular acetylcholine transporter with anthelmintic potential” (Nature Communications, 2023)", "key": {"C. elegans": {"system": "C. elegans", "test": "C. elegans motor phenotype scoring on solid media (Punc/jerky-unc, coiled, paralyzed), wild-type young adults", "assay_type": "in vivo, Caenorhabditis elegans", "conditions": "for any phene, mean % fraction of young adults exhibiting any phenotype (coiled, jerky-Unc or paralyzed) / atypical locomotion (number of animals) / coiled (number of animals) / no phene (number of animals) / paralyzed (number of animals): one hour; for any phene, mean % fraction of young adults exhibiting any phenotype (coiled, jerky-Unc or paralyzed): mean of three biological replicates; for atypical locomotion (number of animals) / coiled (number of animals) / no phene (number of animals) / paralyzed (number of animals): young adults, 20 animals per trial, single replicate counts; for EC50: Caenorhabditis elegans, read-out: C. elegans - motor disruption EC50"}, "[1]": {"system": "Dirofilaria immitis L3/L4", "test": "Dirofilaria immitis L3/L4 motility assay (DiroImager, 72 h)", "conditions": "Dirofilaria immitis L4"}, "Pristionchus pacificus": {"system": "Pristionchus pacificus", "test": "Pristionchus pacificus motor disruption dose-response on solid media, 1 h", "conditions": "for mean % any phene (coiled, jerky-Unc or paralyzed): Pristionchus pacificus young adults, mean of three biological replicates; for EC50: Pristionchus pacificus, 1 h, read-out: P. pacificus motor disruption EC50"}, "[2]": {"system": "Dirofilaria immitis microfilariae", "test": "Dirofilaria immitis microfilariae immobility assay (DiroImager, 72 h)", "conditions": "Dirofilaria immitis microfilariae", "experimental": "We conducted experiments with the Missouri isolate of Dirofilaria immitis in two labs. In the first set of experiments, shown as part of Fig. 3c, D. immitis microfilariae and larval stage 3 (L3) worms were assayed in the laboratories of Bayer Animal Health GmbH (Monheim, Germany). For microfilariae immobility assays, approximately 250 freshly purified microfilariae were cultured in single wells of a 96-well microtiter plate containing supplemented RPMI 1640 medium[68],[69]. […] Microfilariae exposed to medium substituted with 1% DMSO were used as negative controls. Motility of microfilariae was evaluated after 72 h of drug exposure using an image-based approach—DiroImager, developed by Bayer Technology Services. As described in detail in refs. [68],[69], the DiroImager is an automated high-throughput platform that allows for high-resolution optical imaging of an entire 96-well microtiter plate."}, "[3]": {"conditions": "any motor phenotype after 1 h on solid media, ± 95% CI"}, "[4]": {"conditions": "conc 3.75, observed at one hour"}}, "note": "Several values for one entry are separate records, joined by “and”; a condition that tells them apart may be missing. Identical values can stand only once. Like-named read-outs stand apart in the source and are kept apart here.", "data": [{"smiles": "Fc1ccc(N2CCN(CC3CCCCC3)CC2)cc1", "note": "[Nemacol-9]", "values": [{"measurement": "any phene, mean % fraction of young adults exhibiting any phenotype (coiled, jerky-Unc or paralyzed)", "setting": "C. elegans; 3.75uM", "result": 21.6667, "unit": "%"}, {"measurement": "atypical locomotion (number of animals)", "setting": "C. elegans; 3.75uM", "result": "0 and 14 and 12"}, {"measurement": "coiled (number of animals)", "setting": "C. elegans; 3.75uM", "result": 0}, {"measurement": "no phene (number of animals)", "setting": "C. elegans; 3.75uM", "result": "20 and 6 and 8"}, {"measurement": "paralyzed (number of animals)", "setting": "C. elegans; 3.75uM", "result": 0}, {"measurement": "any phene, mean % fraction of young adults exhibiting any phenotype (coiled, jerky-Unc or paralyzed)", "setting": "C. elegans; 15uM", "result": 44.1667, "unit": "%"}, {"measurement": "atypical locomotion (number of animals)", "setting": "C. elegans; 15uM", "result": "5 and 3 and 1 and 2 and 16 and 11"}, {"measurement": "coiled (number of animals)", "setting": "C. elegans; 15uM", "result": "2 and 0 and 4 and 7"}, {"measurement": "no phene (number of animals)", "setting": "C. elegans; 15uM", "result": "13 and 17 and 19 and 18 and 0"}, {"measurement": "paralyzed (number of animals)", "setting": "C. elegans; 15uM", "result": "0 and 2"}, {"measurement": "any phene, mean % fraction of young adults exhibiting any phenotype (coiled, jerky-Unc or paralyzed)", "setting": "C. elegans; 60uM", "result": 95, "unit": "%"}, {"measurement": "atypical locomotion (number of animals)", "setting": "C. elegans; 60uM", "result": "11 and 13 and 12 and 14 and 3 and 1"}, {"measurement": "coiled (number of animals)", "setting": "C. elegans; 60uM", "result": "6 and 5 and 4 and 8 and 13"}, {"measurement": "no phene (number of animals)", "setting": "C. elegans; 60uM", "result": "0 and 4 and 2"}, {"measurement": "paralyzed (number of animals)", "setting": "C. elegans; 60uM", "result": "3 and 2 and 0 and 9 and 6"}, {"measurement": "EC50", "setting": "C. elegans; [3]", "result": "14.4 ± 13.3", "unit": "µM"}, {"measurement": "% effect (motility), DIROIM L4", "setting": "[1]; 2 µM", "result": 5, "unit": "%"}, {"measurement": "% effect (motility), DIROIM L4", "setting": "[1]; 10 µM", "result": 5, "unit": "%"}, {"measurement": "% effect (motility), DIROIM L4", "setting": "[1]; 50 µM", "result": 10, "unit": "%"}, {"measurement": "mean % any phene (coiled, jerky-Unc or paralyzed)", "setting": "Pristionchus pacificus; [4]", "result": 1.667, "unit": "%"}, {"measurement": "mean % any phene (coiled, jerky-Unc or paralyzed)", "setting": "Pristionchus pacificus; conc 15, observed at one hour", "result": 10, "unit": "%"}, {"measurement": "mean % any phene (coiled, jerky-Unc or paralyzed)", "setting": "Pristionchus pacificus; conc 60, observed at one hour", "result": 100, "unit": "%"}, {"measurement": "EC50", "setting": "Pristionchus pacificus", "result": 20, "unit": "µM"}, {"measurement": "% effect (motility), DIROIM MF", "setting": "[2]; 0.016 µM", "result": 0, "unit": "%"}, {"measurement": "% effect (motility), DIROIM MF", "setting": "[2]; 0.08 µM", "result": 0, "unit": "%"}, {"measurement": "% effect (motility), DIROIM MF", "setting": "[2]; 0.4 µM", "result": 0, "unit": "%"}, {"measurement": "% effect (motility), DIROIM MF", "setting": "[2]; 2 µM", "result": 0, "unit": "%"}, {"measurement": "% effect (motility), DIROIM MF", "setting": "[2]; 10 µM", "result": 0, "unit": "%"}]}, {"smiles": "O=C(C1CCCC1)N1CCN(c2ccc([N+](=O)[O-])cc2)CC1", "note": "[Nemacol-17]", "values": [{"measurement": "any phene, mean % fraction of young adults exhibiting any phenotype (coiled, jerky-Unc or paralyzed)", "setting": "C. elegans; 3.75uM", "result": 0, "unit": "%"}, {"measurement": "atypical locomotion (number of animals)", "setting": "C. elegans; 3.75uM", "result": 0}, {"measurement": "coiled (number of animals)", "setting": "C. elegans; 3.75uM", "result": 0}, {"measurement": "no phene (number of animals)", "setting": "C. elegans; 3.75uM", "result": 20}, {"measurement": "paralyzed (number of animals)", "setting": "C. elegans; 3.75uM", "result": 0}, {"measurement": "any phene, mean % fraction of young adults exhibiting any phenotype (coiled, jerky-Unc or paralyzed)", "setting": "C. elegans; 15uM", "result": 0, "unit": "%"}, {"measurement": "atypical locomotion (number of animals)", "setting": "C. elegans; 15uM", "result": 0}, {"measurement": "coiled (number of animals)", "setting": "C. elegans; 15uM", "result": 0}, {"measurement": "no phene (number of animals)", "setting": "C. elegans; 15uM", "result": 20}, {"measurement": "paralyzed (number of animals)", "setting": "C. elegans; 15uM", "result": 0}, {"measurement": "any phene, mean % fraction of young adults exhibiting any phenotype (coiled, jerky-Unc or paralyzed)", "setting": "C. elegans; 60uM", "result": 9.167, "unit": "%"}, {"measurement": "atypical locomotion (number of animals)", "setting": "C. elegans; 60uM", "result": "0 and 2 and 3 and 6"}, {"measurement": "coiled (number of animals)", "setting": "C. elegans; 60uM", "result": 0}, {"measurement": "no phene (number of animals)", "setting": "C. elegans; 60uM", "result": "20 and 18 and 17 and 14"}, {"measurement": "paralyzed (number of animals)", "setting": "C. elegans; 60uM", "result": 0}, {"measurement": "EC50", "setting": "C. elegans; [3]", "result": "> 60", "unit": "µM"}, {"measurement": "% effect (motility), DIROIM L4", "setting": "[1]; 2 µM", "result": 0, "unit": "%"}, {"measurement": "% effect (motility), DIROIM L4", "setting": "[1]; 10 µM", "result": 0, "unit": "%"}, {"measurement": "% effect (motility), DIROIM L4", "setting": "[1]; 50 µM", "result": 15, "unit": "%"}, {"measurement": "mean % any phene (coiled, jerky-Unc or paralyzed)", "setting": "Pristionchus pacificus; [4]", "result": 2.5, "unit": "%"}, {"measurement": "mean % any phene (coiled, jerky-Unc or paralyzed)", "setting": "Pristionchus pacificus; conc 15, observed at one hour", "result": 3.333, "unit": "%"}, {"measurement": "mean % any phene (coiled, jerky-Unc or paralyzed)", "setting": "Pristionchus pacificus; conc 60, observed at one hour", "result": 26.6667, "unit": "%"}, {"measurement": "EC50", "setting": "Pristionchus pacificus", "result": "> 60", "unit": "µM"}, {"measurement": "% effect (motility), DIROIM MF", "setting": "[2]; 0.016 µM", "result": 0, "unit": "%"}, {"measurement": "% effect (motility), DIROIM MF", "setting": "[2]; 0.08 µM", "result": 0, "unit": "%"}, {"measurement": "% effect (motility), DIROIM MF", "setting": "[2]; 0.4 µM", "result": 0, "unit": "%"}, {"measurement": "% effect (motility), DIROIM MF", "setting": "[2]; 2 µM", "result": 0, "unit": "%"}, {"measurement": "% effect (motility), DIROIM MF", "setting": "[2]; 10 µM", "result": 0, "unit": "%"}]}, {"smiles": "CCN1CCN(c2ccc([N+](=O)[O-])cc2)CC1", "note": "[Nemacol-8]", "values": [{"measurement": "any phene, mean % fraction of young adults exhibiting any phenotype (coiled, jerky-Unc or paralyzed)", "setting": "C. elegans; 3.75uM", "result": 0, "unit": "%"}, {"measurement": "atypical locomotion (number of animals)", "setting": "C. elegans; 3.75uM", "result": 0}, {"measurement": "coiled (number of animals)", "setting": "C. elegans; 3.75uM", "result": 0}, {"measurement": "no phene (number of animals)", "setting": "C. elegans; 3.75uM", "result": 20}, {"measurement": "paralyzed (number of animals)", "setting": "C. elegans; 3.75uM", "result": 0}, {"measurement": "any phene, mean % fraction of young adults exhibiting any phenotype (coiled, jerky-Unc or paralyzed)", "setting": "C. elegans; 15uM", "result": 0, "unit": "%"}, {"measurement": "atypical locomotion (number of animals)", "setting": "C. elegans; 15uM", "result": 0}, {"measurement": "coiled (number of animals)", "setting": "C. elegans; 15uM", "result": 0}, {"measurement": "no phene (number of animals)", "setting": "C. elegans; 15uM", "result": 20}, {"measurement": "paralyzed (number of animals)", "setting": "C. elegans; 15uM", "result": 0}, {"measurement": "any phene, mean % fraction of young adults exhibiting any phenotype (coiled, jerky-Unc or paralyzed)", "setting": "C. elegans; 60uM", "result": 28.5965, "unit": "%"}, {"measurement": "atypical locomotion (number of animals)", "setting": "C. elegans; 60uM", "result": "4 and 3 and 1 and 5 and 8"}, {"measurement": "coiled (number of animals)", "setting": "C. elegans; 60uM", "result": "0 and 2 and 1"}, {"measurement": "no phene (number of animals)", "setting": "C. elegans; 60uM", "result": "16 and 17 and 13 and 15 and 11"}, {"measurement": "paralyzed (number of animals)", "setting": "C. elegans; 60uM", "result": "0 and 3 and 2 and 1"}, {"measurement": "EC50", "setting": "C. elegans; 1 h", "result": "> 60", "unit": "µM"}, {"measurement": "% effect (motility), DIROIM L4", "setting": "[1]; 2 µM", "result": 0, "unit": "%"}, {"measurement": "% effect (motility), DIROIM L4", "setting": "[1]; 10 µM", "result": 5, "unit": "%"}, {"measurement": "% effect (motility), DIROIM L4", "setting": "[1]; 50 µM", "result": 5, "unit": "%"}, {"measurement": "mean % any phene (coiled, jerky-Unc or paralyzed)", "setting": "Pristionchus pacificus; [4]", "result": 0, "unit": "%"}, {"measurement": "mean % any phene (coiled, jerky-Unc or paralyzed)", "setting": "Pristionchus pacificus; conc 15, observed at one hour", "result": 48.3333, "unit": "%"}, {"measurement": "mean % any phene (coiled, jerky-Unc or paralyzed)", "setting": "Pristionchus pacificus; conc 60, observed at one hour", "result": 81.6667, "unit": "%"}, {"measurement": "EC50", "setting": "Pristionchus pacificus", "result": "17.8 ± 3.7", "unit": "µM"}, {"measurement": "% effect (motility), DIROIM MF", "setting": "[2]; 0.016 µM", "result": 0, "unit": "%"}, {"measurement": "% effect (motility), DIROIM MF", "setting": "[2]; 0.08 µM", "result": 0, "unit": "%"}, {"measurement": "% effect (motility), DIROIM MF", "setting": "[2]; 0.4 µM", "result": 0, "unit": "%"}, {"measurement": "% effect (motility), DIROIM MF", "setting": "[2]; 2 µM", "result": 0, "unit": "%"}, {"measurement": "% effect (motility), DIROIM MF", "setting": "[2]; 10 µM", "result": 0, "unit": "%"}]}]}
